Data from ChEMBL document CHEMBL1148077, “Stellettin A, a new triterpenoid pigment from the marine sponge Stelletta tenuis” (1994).
Converted amounts (≈) assume the structure as drawn.

System: P388
Assay: Cytotoxicity against mouse P388 cells
Format: functional
Conditions: read-out: ED50 (the source's name)

C\C(=C/C=C/C(C)=C1/C(=O)C[C@H]2[C@@]3(C)CCC(=O)C(C)(C)[C@@H]3CC[C@]12C)c1ccc(C)c(=O)o1 [STELLETIN A]
EC50: 1 ng/mL (≈ 2.16 nM)
